Ends that are not written are not given here.
Assays:
K562 cells = experiment: Killing of the AMP for tumor cells (FCM PI kit); type: cell-based; details: 10 ng, 20 ng and 40 ng of AMP
Protocol: K562 cells were cultivated, a same amount of K562 cells was taken and mixed with 10 ng, 20 ng, and 40 ng of the AMP of SEQ ID NO: 8 to allow a reaction, and apoptotic cells were determined by a flow cytometry (FCM) PI kit.

oral bacteria = experiment: Inhibition on oral bacteria (mouthwash from the elderly, sheep blood agar); type: cell-based; details: 30 min, anaerobic 37 °C 4 d
Protocol: Mouthwash was taken from the elderly and divided into 4 parts of equal amounts, and the 4 parts each were mixed with a solution of 2 mg/mL SEQ ID NO: 8 at different amounts for 30 min and then evenly coated on plates with sheep blood agar, where A: PBS (control), B: 2 μL, C: 10 μL, and D: 20 μL; and resulting mixtures each were anaerobically cultivated at 37 °C for 4 d, and the number of colonies on each plate was observed.

E. coli = E. coli inhibition test (colony count on agarose plate); type: cell-based, Escherichia coli; details: for number of E. coli clones on plate: AMP 200 μg/mL mixed 1:1 with bacterial solution, 15 min room temperature, cultivated 37 °C 12 h, control 251 clones
Protocol: The 39 AMPs synthesized in Examples 1 to 39 each were subjected to an E. coli inhibition test. 30 μL of an E. coli bacterial solution was taken and mixed with 30 μL of each of the AMPs (concentration: 200 μg/mL), and 30 μL of a PBS isotonic solution was adopted to prepare a control; a reaction was allowed at room temperature for 15 min, and a resulting bacterial solution was evenly coated on an agarose plate and cultivated at 37 °C for 12 h; and the number of E. coli bacteria on each plate was counted and recorded.
In order to make the experimental results clearer, 6 experimental samples were taken for control analysis.

RNA viruses = experiment: Killing of the AMP for RNA viruses (RT-PCR after infection of 293T); type: cell-based; details: supernatant mixed with equal amount of 200 μg/mL AMP for 15 min; 293T infected 12 h; control 1.7×10^7
Protocol: The plasmids pNL4.3Δ, pVSV-G, p-enhancer, and lipo2000 each were used to transfect 293T, then the cells were cultivated at 37° ° C. for two days, a culture supernatant was taken and centrifuged to remove organelle impurities, and 500 μL of a cell supernatant was mixed with an equal amount of 200 μg/mL SEQ ID NO: 8 to allow a reaction for 15 min. In a control group, PBS was used instead of SEQ ID NO: 8. The filter centrifugation (Millipore Amicon Ultra-15) was used to remove the AMP, thereby eliminating a killing effect of the AMP itself on cells. A sample to be tested was used to infect the 293Tcell line, and then the cell line was cultivated at 37° C. for 12 h. The 293T cell line was recovered, and the RT-PCR method was used to determine the infection difference between live viruses for the cells. The control group and the experimental group had the same experimental environment, but the amino acid sequence of SEQ ID NO: 8 of the present application was added in the experimental group.

[1] = test system: Jurkat cell line (leukemia lymphocytes); experiment: Killing of the AMP for leukemia lymphocytes; type: cell-based; details: 20 μL of 1 μg/mL AMP, 10^5 cells, 10 min
Protocol: Jurkat cell line (leukemia lymphocytes) was taken. 20 μL of a solution of 1 μg/mL AMP of SEQ ID NO: 10 was mixed with 10^5 cells to allow a reaction for 10 min, and a resulting mixture was centrifuged at 1,000 rpm for 3 min.

Human RBCs = type: cell-based; details: 20 μL of 1 μg/mL AMP, 2% RBCs, 10 min
Protocol: Human RBCs were taken. 20 μL of a solution of 1 μg/mL AMP of SEQ ID NO: 27 was mixed with 2% RBCs to allow a reaction for 10 min, and a resulting mixture was centrifuged at 1,000 rpm for 3 min.

[2] = test system: HypG2 cell line (liver cancer cells); experiment: Killing of the AMP for liver cancer cells; type: cell-based; details: 20 μL of 1 μg/mL AMP, 10^5 cells, 10 min
Protocol: HypG2 cell line (liver cancer cells) was taken. 20 μL of a solution of 1 μg/mL AMP of SEQ ID NO: 15 was mixed with 10^5 cells to allow a reaction for 10 min, and a resulting mixture was centrifuged at 1,000 rpm for 3 min.

[3] = test system: K562 cell line (leukemia cells); experiment: Killing of the AMP for leukemia cells; type: cell-based; details: 20 μL of 1 μg/mL AMP, 10^5 cells, 10 min
Protocol: K562 cell line (leukemia cells) was taken. 20 μL of a solution of 1 μg/mL AMP of SEQ ID NO: 17 was mixed with 10^5 cells to allow a reaction for 10 min, and a resulting mixture was centrifuged at 1,000 rpm for 3 min.

HAMGNMLKIMASAVLVRH [SEQ ID NO: 8, HAMGNMLKIMASAVLVRH]
cell death (apoptotic cells, FCM PI) (K562 cells): cell death was proportional to the content of the AMP | growth of oral bacteria on plate (oral bacteria; B: 2 μL of 2 mg/mL solution): a small number of bacteria grew | growth of oral bacteria on plate (oral bacteria; C: 10 μL of 2 mg/mL solution): no oral bacteria grew | growth of oral bacteria on plate (oral bacteria; D: 20 μL of 2 mg/mL solution): no oral bacteria grew | number of E. coli clones on plate (E. coli): 1 E. coli clones | inhibitory effect on E. coli (E. coli; AMP 200 μg/mL, 15 min, plate count (FIG. 1)): most significant inhibitory effect | active viral copy (RNA viruses): 5×10^5

HAMPNMLRIMASAVLVKR (antimicrobial peptide, fully synthetic) [SEQ ID NO: 7]
number of E. coli clones on plate (E. coli): 216 E. coli clones

HKAVGNMLKIASAVLVHK (antimicrobial peptide, fully synthetic) [SEQ ID NO: 6]
number of E. coli clones on plate (E. coli): 226 E. coli clones

HKAVPNMLHIASAVLVRH (antimicrobial peptide, fully synthetic) [SEQ ID NO: 5]
number of E. coli clones on plate (E. coli): 236 E. coli clones

HKRAMPSIVKMIATLVLARKH (antimicrobial peptide, fully synthetic) [SEQ ID NO: 10]
effect on leukemia lymphocytes (image) [1]: leukemia lymphocytes clump, and some are broken

KAVPNMLKIMASLVLARH [SEQ ID NO: 27, KAVPNMLKIMASLVLARH]
clumping of RBCs (Human RBCs): human RBCs clump | hemolysis (Human RBCs): no obvious hemolysis

RAMPNMLRIMASLVLARKH [SEQ ID NO: 15]
effect on liver cancer cells (image) [2]: Liver cancer cells clump, and are broken and deformed

RHAMGQMLRIMASLVLARK [SEQ ID NO: 17]
effect on leukemia cells (image) [3]: leukemia cells clump
